Paper PMC6253249, “Protein-Ligand Fishing in planta for Biologically Active Natural Products Using Glutathione Transferases” (Frontiers in Plant Science, 2018)
Values belong to the molecule of their own block, whether it stands above or below them.

Tests used:
AtGSTF2 = target: T1, AtGSTF2 (Arabidopsis thaliana, UniProt P46422); assay: Isothermal titration calorimetry (ITC) of ligand binding to Strep-tagged AtGSTF2; details: for N (binding stoichiometry) / ΔH: 25°C, HBS, 1 mM glutathione, 0.1% w/v Tween 20
T1 construct: Strep-tag (N); made in house; host or cells: Escherichia coli (minimal medium)
T1 sequence (P46422 1-212): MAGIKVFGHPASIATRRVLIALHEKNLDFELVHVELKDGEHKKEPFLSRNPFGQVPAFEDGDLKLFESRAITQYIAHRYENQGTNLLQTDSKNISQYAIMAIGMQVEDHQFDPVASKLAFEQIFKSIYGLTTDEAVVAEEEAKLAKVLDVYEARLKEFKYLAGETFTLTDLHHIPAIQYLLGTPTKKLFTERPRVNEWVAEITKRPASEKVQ
Experimental: (§1) Isothermal titration calorimetry (ITC) experiments were performed at 25°C in HBS buffer and analyzed using a VP-ITC instrument with Origin 7.0 software (GE Healthcare, Amersham, United Kingdom). Where ligands were added in solvents, an equivalent volume of ethanol was used as control. With the flavonols, 0.1% w/v Tween 20 was used to increase ligand solubility. In addition to titrating ligand into protein, control titrations of ligand into buffer and buffer into protein were performed. For studies with AtGSTF2, the respective Strep-tagged protein was purified from E. coli grown in minimal medium to minimize contamination with pre-bound ligands and used in ITC assuming 1:1 binding to ligand, as previously determined ([Dixon et al., 2011]).
(§2) To investigate the binding characteristics of the ligands to the GSTs, isothermal titration calorimetry (ITC) was used to determine binding affinity and stoichiometry. With AtGSTF2 the commercially available compounds kaempferol and kaempferol-3,7′-dimethylether were used, along with the methylated flavonols purified from the surface of the tobacco leaves (Table 2 and Supplementary Figure S4). […] When AtGSTU19 was tested with ISSG, tight and stoichiometric binding was determined (Table 2 and Supplementary Figure S5). AtGSTU19 enzyme activity, as determined by the GSH conjugation of 1-chloro-2,4-dinitrobenzene, was inhibited by ISSG in a competitive manner with respect to GSH, confirming that ISSG binding occurred at the enzyme active site.
Supplementary Figure S4. Typical ITC data for GSTF2 (7.7 µM) binding to compound 11 (putative kaempferol-3,7’-dimethylether). The experiment was performed in HBS containing 1 mM GSH, 0.1% Tween 20 and 1% ethanol. The associated line indicates best fit curves for a one set of sites binding model.

GSTUs from poppy = test system: GSTUs from poppy; design: method as in Yu and Facchini, 2000; details: ref Yu and Facchini, 2000; cited from earlier work
AtGSTU19 [1] = target: T2, AtGSTU19 (Arabidopsis thaliana, UniProt Q9ZRW8); assay: Isothermal titration calorimetry (ITC) of ligand binding to AtGSTU19; details: 25°C, HBS, no cofactor listed
T2 construct: Strep-tag (N)
T2 sequence (Q9ZRW8 whole entry): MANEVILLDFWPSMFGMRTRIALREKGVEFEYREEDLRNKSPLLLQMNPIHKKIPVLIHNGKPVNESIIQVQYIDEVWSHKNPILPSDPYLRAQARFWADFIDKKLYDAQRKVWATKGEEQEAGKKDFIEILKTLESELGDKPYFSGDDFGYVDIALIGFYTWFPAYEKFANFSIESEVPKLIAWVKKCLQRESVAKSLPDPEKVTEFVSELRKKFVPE
Experimental: as §1, §2
Supplementary Figure S5. Analysis of GSTU19 ligand binding by ITC.
Binding of ISSG to 11.1 uM GSTU19. A best fit line corresponding to a one set of
sites binding model is shown.

AtGSTU19 [2] = target: T2, AtGSTU19; assay: AtGSTU19 enzyme activity, GSH conjugation of 1-chloro-2,4-dinitrobenzene, inhibition; type: biochemical; details: with respect to GSH; substrate 1-chloro-2,4-dinitrobenzene
Experimental: as §2

GSTU19 = target: T3, GSTU19 (Arabidopsis thaliana, UniProt Q9ZRW8); assay: Isothermal titration calorimetry at 25 °C in HBS, ligand titrated into GSTU19, no GSH marked for these rows, one-set-of-sites fit.; type: binding; details: read-out: Ka (μM^-1) (converted)
T3 construct: recombinant, Strep-tagged
T3 sequence (Q9ZRW8 whole entry): as above
Experimental: as §1
as §2, with “stoichiometry.” for “stoichiometry. With AtGSTF2 the commercially available compounds kaempferol and kaempferol-3,7′-dimethylether were used, along with the methylated flavonols purified from the surface of the tobacco leaves (Table 2 and Supplementary Figure S4).”, “site. […]” for “site.”

SMILES: COc1cc(O)c2c(=O)c(OC)c(-c3ccc(O)cc3)oc2c1 [Compound 11, kaempferol-3,7′-dimethylether]
Kd (AtGSTF2): 220 nM

SMILES: COc1cc(/C=C/C(=O)NCCc2ccc(O)cc2)ccc1O [feruloyltyramine, N-trans-feruloyltyramine]
Inhibition of poppy GSTUs (in words) (GSTUs from poppy): weakly inhibiting

SMILES: O=c1c(O)c(-c2ccc(O)cc2)oc2cc(O)cc(O)c12 [kaempferol, reference compound]
Kd (AtGSTF2): 12000 nM
N (binding stoichiometry) (AtGSTF2): 0.60 ± 0.05
ΔH (AtGSTF2): -12.6 ± 1.4 kcal/mol

N (binding stoichiometry) (AtGSTU19 [1]): 0.98 ± 0.01
ΔH (AtGSTU19 [1]): -10.6 ± 0.1 kcal/mol
Mode of inhibition of AtGSTU19 enzyme activity (AtGSTU19 [2]): competitive
SMILES: NC(CCC(=O)NC(CSSCc1c[nH]c2ccccc12)C(=O)NCC(=O)O)C(=O)O (stereo not drawn) [ISSG, 3-methylindolyl glutathionyl disulfide]

Kd (GSTU19): 0.117 µM
SMILES: N[C@@H](CCC(=O)N[C@@H](CSSCc1c[nH]c2ccccc12)C(=O)NCC(=O)O)C(=O)O [ISSG, 3-methylindolyl glutathionyl disulfide]

Kd (GSTU19): 0.311 µM
SMILES: CCCCCCSC[C@H](NC(=O)CC[C@H](N)C(=O)O)C(=O)NCC(=O)O [S-hexylglutathione]

Kd (AtGSTF2): < 1000 nM
N (binding stoichiometry) (AtGSTF2): 0.54 ± 0.01
ΔH (AtGSTF2): -18.4 ± 0.2 kcal/mol
SMILES: COc1ccc(-c2oc3cc(OC)cc(O)c3c(=O)c2OC)cc1 [Compound 13, kaempferol-3,7,4′-trimethylether]

N (binding stoichiometry) (AtGSTU19 [1]): 0.84 ± 0.01
ΔH (AtGSTU19 [1]): -11.8 ± 0.1 kcal/mol
SMILES: CCCCCCSC[C@H](NC(=O)CC[C@H](N)C(=O)O)C(=O)NCC(=O)O [S-hexylglutathione, reference compound]
